These results are taken from US6596692B1, “Substance P analogs for the treatment of cancer” (Dabur Research Foundation, priority 2000, dated 2003).

Data set [1] deals with human colon adenocarcinoma (PTC) xenografts. Put plainly: In vivo anti tumor activity on PTC tumor xenografts. The arrangement: species or system Balb/c athymic nude mice. As to conditions: 4.25 μg intravenously twice a day; for Tumor volumes, Average: group average. The protocol:
In vivo Anti Tumor Activity of Substance P Analogs on PCT Tumor Xenografts Protocol The anti tumor activity of substance P analogs was studied in human colon adenocarcinoma (PTC) xenografts in nude mice. PTC tumor xenografts were grown in Balb/c athymic nude mice by subcutaneous inoculation of a single cell suspension of PTC cells (15×10^6 cells/100 μL). The tumor bearing animals were divided into 4 groups of three animals each including one group comprising untreated control animals. Treatment with Substance P Receptor Antagonists was initiated when the average tumor volumes, as measured using a vernier caliper, were between 400-800 mm^3. SEQ ID NO:5, SEQ ID NO:7 and SEQ ID NO:8 peptides were prepared at a concentration of 42.5 μg/ml and intravenously administered to the assigned group of tumor bearing animals at a dose of 4.25 μg/100 μL twice a day so that the total dose of 8.5 μg was administered to each animal. The treatment was continued for a period of 10 days. The antitumor activity of the compounds was monitored by measuring 15 tumor volumes every fourth day using the formula W*W*L*0.4 (W=smaller diameter, L=larger diameter). The percentage inhibition of tumor growth was calculated using. the formula (1−tumor volume-treated/ tumor volume-control)×100.

Data set [2] has as its system SCLC cells. As to conditions: SCLC proliferation; read-out: IC50, inhibition of SCLC proliferation; cited from earlier work.
In data set [3] the test system is Swiss 3T3 cells. The note with it: cited from earlier work.
Data set [4] concerns SCLC xenografts. As to conditions: cited from earlier work.
For data set [5], the system named is H69 SCLC cells xenografts. As to conditions: xenografts in vivo in nude mice; cited from earlier work.
The test system of data set [6] is H69 SCLC cells. The note with it: cited from earlier work.
In data set [7] the test system is H-510 SCLC cells. The note with it: liquid culture and semi-solid media, read-out: IC50, inhibition of proliferation; cited from earlier work.
Data set [8] has as its system H-69 SCLC cells. As to conditions: liquid culture and semi-solid media, read-out: IC50, inhibition of proliferation; cited from earlier work.
Data set [9] concerns PTC (colon). Put plainly: In vitro cytotoxic activity, MTT assay, 72 hours. The class given is cell-based, human. The protocol:
(§1) In vitro Cytotoxic Activity of the Novel Synthesized Peptide Analogs
(§2) The cytotoxic activity of synthesized peptides was tested on six human tumor cell lines namely MCF7 (breast), U373 (glioblastoma), PTC, (colon), L132 (lung), Su.86.86 (pancreas), and KB (oral). The tumor cells were collected at exponential growth phase and resuspended in medium (1.5×10^6 cells/ml in RPMI 1640 containing 10% FBS). 150 μL of medium was added to the wells of a 96-well tissue culture plate (Nunc, Denmark) followed by 30 μl of cell suspension. The plate was left in an incubator (37° C., 5% CO2) overnight. 20 μl of the peptide (100 pM to 10 μM concentration) was added to marked wells of the 96-well plate. Each concentration was plated in triplicate. 20 μl of medium alone was added to control wells while wells without cells served as blanks. A total volume of 200 μL was ensured in each well and plate was left in incubator (37° C., 5% CO2). After 72 hours of incubation an MTT assay was performed and percentage cytotoxicity was calculated with respect to control cells.
A general note: Tetrazolium assays rely on reduction of a dye to a coloured formazan, in cell work by metabolically active cells.

The subject of data set [10] is L132 (lung). Put plainly: In vitro cytotoxic activity, MTT assay, 72 hours. The class given is cell-based, human. The protocol:
as §1, §2

Data set [11] deals with KB (oral). Description: In vitro cytotoxic activity, MTT assay, 72 hours. The class given is cell-based, human. The note with it: 100 pM. The protocol: as §1, §2

Non-standard residues stand in square brackets, D forms with d. Residues, ends and D or L forms follow the SMILES beside them. *: point of attachment. Octanoyl = CCCCCCCC(=O)*; pHOPA = not defined here; Ac5c = NC1(C(=O)O)CCCC1; Butyryl = CCCC(=O)*

Turning to `CCCCCCCC(=O)N[C@H](CCCNC(=N)N)C(=O)N1CCC[C@H]1C(=O)N[C@@H](CCCCN)C(=O)N1CCC[C@H]1C(=O)N[C@H](Cc1ccccc1)C(=O)N[C@@H](CCC(N)=O)C(=O)N[C@H](Cc1c[nH]c2ccccc12)C(=O)N[C@@H](Cc1ccccc1)C(=O)N[C@H](Cc1c[nH]c2ccccc12)C(=O)N[C@@H](CC(C)C)C(=O)NC1(C(N)=O)CCCC1` [SEQ ID NO: 8, Octanoyl-D-Arg-Pro-Lys-Pro-D-Phe-Gln-D-Trp-Phe-D-Trp-Leu-Ac5c-NH2] (Octanoyl-[dR]PKP[dF]Q[dW]F[dW]L[Ac5c]-NH2), the “Tumor volumes, animal I” value in data set [1] (Day 6) amounted to 532.4 mm^3; in [1] (Day 8), 1020.6 mm^3; in data set [1] (Day 12) it was 2080.8 mm^3; in [1] (Day 15), 3880.8 mm^3; in [1] (Day 19), 3520.0 mm^3; in data set [1] (Day 22) it was 2312.0 mm^3. Besides, the “Tumor volumes, animal II” value in data set [1] (Day 6) is listed as 291.6 mm^3; in [1] (Day 8), 691.2 mm^3; in data set [1] (Day 12), 1440 mm^3; in data set [1] (Day 15) it was 2592 mm^3; in data set [1] (Day 19) it was 1474.8 mm^3; in data set [1] (Day 22), 36 mm^3. Besides, the “Tumor volumes, animal III” value turned out to be 0 mm^3 in [1] (Day 6); 0 mm^3 in [1] (Day 8); 156.8 mm^3 in data set [1] (Day 12); 580.8 mm^3 in [1] (Day 15); 1710 mm^3 in data set [1] (Day 19); 3177 mm^3 in data set [1] (Day 22). The “Tumor volumes, Average” value in data set [1] (Day 6) is 274.6 mm^3; in data set [1] (Day 8), 570.6 mm^3; in [1] (Day 12) it was 1225.8 mm^3; in data set [1] (Day 15), 2351.2 mm^3; in data set [1] (Day 19), 2234.9 mm^3; in [1] (Day 22) it was 1841.6 mm^3.
For the compound “D-MePhe-D-Trp-Phe-DTrp-Leu-MPA [Analog 7]”, the IC50 in [2] was 5 µM.
In the case of “[Arg^6,D-Trp^7,9, MePhe^8] substance P(6-11) [antagonist G]”, the “potency relative to antagonist D” value in [3] (blocking bombesin/GRP mediated mitogenesis in Swiss 3T3 cells) is recorded as “ten fold less potent than antagonist D”. Also, the “inhibition of SCLC xenografts in vivo” value in data set [4] is reported as “showed inhibition of SCLC xenografts in vivo”.
“pHOPA-D-Trp-Phe-D-Trp-Leu-Leu-NH2 (pHOPA-[dW]F[dW]LL-NH2; reading uncertain) [Analog R]”: in [5], the “inhibition of proliferation of H69 SCLC cells in xenografts” value is “inhibit the proliferation”. Besides, the “inhibition of proliferation of H69 SCLC cells in vitro” value in data set [6] is on record as “inhibit the proliferation”.
Consider “D-MePhe-D-Trp-Phe-D-TrpLeu(psi)-(CH2NH)-Leu-NH2) [Analog 6]”, for which, in data set [2], the IC50 was 2 µM.
Take “[D-Arg^1, D-Phe^5, D-Trp^7,9, Leu^11] substance P [Antagonist D]”: the IC50 in [7] and in data set [8] was 5 µM in each case. The “potency relative to antagonist A” value in data set [3] (preventing cellular effects of bombesin/GRP and vasopressin in mouse 3T3 cells, also growth of SCLC cells in serumfree medium) is “five fold more potent than antagonist A”.
Take `CCCC(=O)N[C@H](CCCNC(=N)N)C(=O)N1CCC[C@H]1C(=O)N[C@@H](CCCCN)C(=O)N1CCC[C@H]1C(=O)N[C@H](Cc1ccccc1)C(=O)N[C@@H](CCC(N)=O)C(=O)N[C@H](Cc1c[nH]c2ccccc12)C(=O)N[C@@H](Cc1ccccc1)C(=O)N[C@H](Cc1c[nH]c2ccccc12)C(=O)N[C@@H](CC(C)C)C(=O)NC1(C(N)=O)CCCC1` [SEQ ID NO: 7, Butanoyl-D-Arg-Pro-Lys-Pro-D-Phe-Gln-D-Trp-Phe-D-Trp-Leu-Ac5c-NH2] (Butyryl-[dR]PKP[dF]Q[dW]F[dW]L[Ac5c]-NH2): the Percentage cytotoxicity entry was “Nil” in data set [9] (100 pM); “Nil” in data set [9] (1 nM); 9 ± 2.3% in data set [10] (100 nM); 15 ± 2.3% in [10] (10 μM); “Nil” in [11]. Besides, the “Tumor volumes, animal I” value is recorded as 25.6 mm^3 in data set [1] (Day 6); 176.4 mm^3 in data set [1] (Day 8); 580.8 mm^3 in data set [1] (Day 12); 946.4 mm^3 in [1] (Day 15); 1741 mm^3 in data set [1] (Day 19); 2018 mm^3 in data set [1] (Day 22). In addition, the “Tumor volumes, animal II” value in data set [1] (Day 6) worked out at 66.6 mm^3; in [1] (Day 8), 260.1 mm^3; in data set [1] (Day 12), 1440 mm^3; in data set [1] (Day 15) it was 2427.6 mm^3; in data set [1] (Day 19), 2253 mm^3; in data set [1] (Day 22), 3110 mm^3. In addition, the “Tumor volumes, animal III” value in data set [1] (Day 6) is on record as 0 mm^3; in [1] (Day 8) it was 72 mm^3; in data set [1] (Day 12), 281.6 mm^3; in [1] (Day 15), 864 mm^3; in data set [1] (Day 19), 1800 mm^3; in [1] (Day 22), 0 mm^3. Moreover, the “Tumor volumes, Average” value worked out at 30.7 mm^3 in data set [1] (Day 6); 169.5 mm^3 in data set [1] (Day 8); 767.4 mm^3 in [1] (Day 12); 1412.6 mm^3 in data set [1] (Day 15); 1931.3 mm^3 in data set [1] (Day 19); 1709.3 mm^3 in data set [1] (Day 22).
